Reference: PubChem BioAssay AID1259407 (Chemical Carcinogenesis Research Information System (CCRIS), 2018)
Calls of active or inactive are those of the source. No rule for the calls is given here.

Test system: CCRIS mutagenicity, Ames/micronucleus/aberration tests
Assay: CCRIS mutagenicity studies

## O=NN1CCCCC1
Test System: AMES SALMONELLA TYPHIMURIUM, Strain/Indicator: TA100, Metabolic Activation: RAT, LUNG, S-9, Method: STANDARD PLATE
  mutagenic call: inactive; negative
Test System: AMES SALMONELLA TYPHIMURIUM, Strain/Indicator: TA100, Metabolic Activation: RAT, NASAL, S-9, Method: STANDARD PLATE
  mutagenic call: active; positive
Test System: AMES SALMONELLA TYPHIMURIUM, Strain/Indicator: TA100, Metabolic Activation: TOBACCO CELLS, Method: PREINCUBATION
  mutagenic call: inactive; negative
Test System: AMES SALMONELLA TYPHIMURIUM, Strain/Indicator: TA104, Metabolic Activation: RAT, LIVER, S-9, AROCLOR 1254, Method: PREINCUBATION
  mutagenic call: active; positive
Test System: AMES SALMONELLA TYPHIMURIUM, Strain/Indicator: TA1530, Metabolic Activation: RAT LIVER, CYTOSOL, ISONIAZID, Method: PREINCUBATION
  mutagenic call: inactive; negative
Test System: AMES SALMONELLA TYPHIMURIUM, Strain/Indicator: TA1530, Metabolic Activation: RAT LIVER, MICROSOMES, ISONIAZID, Method: PREINCUBATION
  mutagenic call: active; positive
Test System: AMES SALMONELLA TYPHIMURIUM, Strain/Indicator: TA1530, Metabolic Activation: RAT, LIVER, S-9, Method: STANDARD PLATE
  mutagenic call: active; positive
Test System: AMES SALMONELLA TYPHIMURIUM, Strain/Indicator: TA1535, Metabolic Activation: HAMSTER, LIVER, S-9, AROCLOR 1254 (10%), Method: PREINCUBATION
  mutagenic call: active; positive
Test System: AMES SALMONELLA TYPHIMURIUM, Strain/Indicator: TA1535, Metabolic Activation: HAMSTER, LIVER, S-9, AROCLOR 1254, Method: PREINCUBATION
  mutagenic call: active; positive
Test System: AMES SALMONELLA TYPHIMURIUM, Strain/Indicator: TA1535, Metabolic Activation: NONE, Method: PREINCUBATION
  mutagenic call: inactive; negative
Test System: AMES SALMONELLA TYPHIMURIUM, Strain/Indicator: TA1535, Metabolic Activation: RAT, LIVER, S-9, AROCLOR 1254 (10%), Method: PREINCUBATION
  mutagenic call: active; positive
Test System: AMES SALMONELLA TYPHIMURIUM, Strain/Indicator: TA1535, Metabolic Activation: RAT, LIVER, S-9, AROCLOR 1254, Method: PREINCUBATION
  mutagenic call: active; positive
Test System: AMES SALMONELLA TYPHIMURIUM, Strain/Indicator: TA1535, Metabolic Activation: RAT, LIVER, S-9, Method: STANDARD PLATE
  mutagenic call: active; positive
Test System: AMES SALMONELLA TYPHIMURIUM, Strain/Indicator: TA1537, Metabolic Activation: HAMSTER, LIVER, S-9, AROCLOR 1254 (10%), Method: PREINCUBATION
  mutagenic call: inactive; negative
Test System: AMES SALMONELLA TYPHIMURIUM, Strain/Indicator: TA1537, Metabolic Activation: HAMSTER, LIVER, S-9, AROCLOR 1254, Method: PREINCUBATION
  mutagenic call: inactive; negative
Test System: AMES SALMONELLA TYPHIMURIUM, Strain/Indicator: TA1537, Metabolic Activation: NONE, Method: PREINCUBATION
  mutagenic call: inactive; negative
Test System: AMES SALMONELLA TYPHIMURIUM, Strain/Indicator: TA1537, Metabolic Activation: RAT, LIVER, S-9, AROCLOR 1254 (10%), Method: PREINCUBATION
  mutagenic call: inactive; negative
Test System: AMES SALMONELLA TYPHIMURIUM, Strain/Indicator: TA1537, Metabolic Activation: RAT, LIVER, S-9, AROCLOR 1254, Method: PREINCUBATION
  mutagenic call: inactive; negative
Test System: AMES SALMONELLA TYPHIMURIUM, Strain/Indicator: TA1538, Metabolic Activation: HAMSTER, LIVER, S-9, AROCLOR 1254 (10%), Method: PREINCUBATION
  mutagenic call: inactive; negative
Test System: AMES SALMONELLA TYPHIMURIUM, Strain/Indicator: TA1538, Metabolic Activation: HAMSTER, LIVER, S-9, AROCLOR 1254, Method: PREINCUBATION
  mutagenic call: inactive; negative
Test System: AMES SALMONELLA TYPHIMURIUM, Strain/Indicator: TA1538, Metabolic Activation: NONE, Method: PREINCUBATION
  mutagenic call: inactive; negative
Test System: AMES SALMONELLA TYPHIMURIUM, Strain/Indicator: TA1538, Metabolic Activation: RAT, LIVER, S-9, AROCLOR 1254 (10%), Method: PREINCUBATION
  mutagenic call: inactive; negative
Test System: AMES SALMONELLA TYPHIMURIUM, Strain/Indicator: TA1538, Metabolic Activation: RAT, LIVER, S-9, AROCLOR 1254, Method: PREINCUBATION
  mutagenic call: inactive; negative
Test System: AMES SALMONELLA TYPHIMURIUM, Strain/Indicator: TA1975, Metabolic Activation: RAT, LIVER, S-9, AROCLOR 1254, Method: PREINCUBATION
  mutagenic call: active; positive
Test System: UDS RODENT CELLS, Strain/Indicator: THY INCORP (NON-S-PHASE), Metabolic Activation: NONE, Method: LIQUID SCINTILLATION COUNTING
  mutagenic call: inactive; negative
Test System: UDS RODENT CELLS, Strain/Indicator: THY INCORP (NON-S-PHASE), Metabolic Activation: RAT, LIVER, S-9, SODIUM PHENOBARBITAL, Method: LIQUID SCINTILLATION COUNTING
  mutagenic call: active; positive
